Experimental data from US20100298141A1, “SUBSTITUTED PYRIDINE N-OXIDE HERBICIDES” (E. I. DU PONT DE NEMOURS AND COMPANY, priority 2007, published 2010).

Legend:
barnyardgrass [1] = assay: Test A pre-/postemergence greenhouse test; assay type: in vivo, Echinochloa crus-galli; details: for Plant response rating, Barnyardgrass: 0 to 100 scale where 0 is no effect and 100 is complete control; for Barnyardgrass plant response rating: 0 to 100 scale
Outline: (§1)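 Planting was into mixed loam soil and sand; preemergence treatment followed as a directed soil spray. Concurrently, emerged plants (one- to two-leaf, 2–10 cm) received postemergence applications of identically formulated compound (non-phytotoxic solvent, surfactant). After approximately ten days under greenhouse conditions, injury was judged by eye against untreated plants.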

crabgrass = assay: Test A pre-/postemergence greenhouse test; assay type: in vivo, Digitaria sanguinalis; details: for Plant response rating, Crabgrass, Large: 0 to 100 scale where 0 is no effect and 100 is complete control; for Crabgrass, Large plant response rating: 0 to 100 scale
Outline: as §1

giant foxtail = assay: Test A pre-/postemergence greenhouse test; assay type: in vivo, Setaria faberi; details: for Plant response rating, Foxtail, Giant: 0 to 100 scale where 0 is no effect and 100 is complete control; for Foxtail, Giant plant response rating: 0 to 100 scale
Outline: as §1

morningglory = assay: Test A pre-/postemergence greenhouse test; assay type: in vivo, Ipomoea spp.; details: for Plant response rating, Morningglory: 0 to 100 scale where 0 is no effect and 100 is complete control; for Morningglory plant response rating: 0 to 100 scale
Outline: as §1

redroot pigweed = assay: Test A pre-/postemergence greenhouse test; assay type: in vivo, Amaranthus retroflexus; details: for Plant response rating, Pigweed: 0 to 100 scale where 0 is no effect and 100 is complete control; for Pigweed plant response rating: 0 to 100 scale
Outline: as §1

velvetleaf = assay: Test A pre-/postemergence greenhouse test; assay type: in vivo, Abutilon theophrasti; details: for Plant response rating, Velvetleaf: 0 to 100 scale where 0 is no effect and 100 is complete control; for Velvetleaf plant response rating: 0 to 100 scale
Outline: as §1

wheat = assay: Test A pre-/postemergence greenhouse test; assay type: in vivo, Triticum aestivum; details: for Plant response rating, Wheat: 0 to 100 scale where 0 is no effect and 100 is complete control; for Wheat plant response rating: 0 to 100 scale
Outline: as §1

corn = assay: Test A pre-/postemergence greenhouse test; assay type: in vivo, Zea mays; details: for Plant response rating, Corn: 0 to 100 scale where 0 is no effect and 100 is complete control; for Corn plant response rating: 0 to 100 scale
Outline: as §1

rice = assay: Test C flooded paddy test; assay type: in vivo, Oryza sativa; details: Flood
Outline: (§2)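 Under a constant 3 cm flood, test compounds went directly into the paddy water. Following 13 to 15 days of greenhouse growth, treated species and controls were compared by eye.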

umbrella sedge = assay: Test C flooded paddy test; assay type: in vivo, Cyperus difformis; details: Flood
Outline: as §2

duck salad = assay: Test C flooded paddy test; assay type: in vivo, Heteranthera limosa; details: Flood
Outline: as §2

barnyardgrass [2] = assay: Test C flooded paddy test; assay type: in vivo, Echinochloa crus-galli; details: Flood
Outline: as §2

[3] = Postemergence, 500 g ai/ha, 0 is no effect, 100 is complete control
[4] = Preemergence, 125 g ai/ha, 0 no effect, 100 complete control
[5] = 62 g ai/ha, scale 0 to 100 (0 no effect, 100 complete control)
[6] = 250 g ai/ha, scale 0 to 100, 0 no effect, 100 complete control, 13 to 15 days
[7] = Preemergence, 500 g ai/ha, 0 no effect, 100 complete control

Structure (SMILES)	Plant response rating, Barnyardgrass (barnyardgrass [1]; Postemergence, 125 g ai/ha)	Barnyardgrass plant response rating (barnyardgrass [1]; [3])	Barnyardgrass plant response rating (barnyardgrass [1]; [4])	Plant response rating, Barnyardgrass (barnyardgrass [1]; Preemergence, 500 g ai/ha)	Plant response rating, Crabgrass, Large (crabgrass; Postemergence, 125 g ai/ha)	Crabgrass, Large plant response rating (crabgrass; [3])	Crabgrass, Large plant response rating (crabgrass; [4])	Plant response rating, Crabgrass, Large (crabgrass; Preemergence, 500 g ai/ha)	Plant response rating, Foxtail, Giant (giant foxtail; Postemergence, 125 g ai/ha)	Foxtail, Giant plant response rating (giant foxtail; [3])	Foxtail, Giant plant response rating (giant foxtail; [4])	Plant response rating, Foxtail, Giant (giant foxtail; Preemergence, 500 g ai/ha)	Plant response rating, Morningglory (morningglory; Postemergence, 125 g ai/ha)	Morningglory plant response rating (morningglory; [3])	Morningglory plant response rating (morningglory; [4])	Plant response rating, Morningglory (morningglory; Preemergence, 500 g ai/ha)	Plant response rating, Pigweed (redroot pigweed; Postemergence, 125 g ai/ha)	Pigweed plant response rating (redroot pigweed; [3])	Pigweed plant response rating (redroot pigweed; [4])	Plant response rating, Pigweed (redroot pigweed; Preemergence, 500 g ai/ha)	also measured
Cn1nc(C(F)(F)F)c(CS(=O)(=O)c2cccc[n+]2[O-])c1OCC(F)(F)C(F)(F)F [Compound 83]	50	70	80	100	30	80	50	80	70	80	80	100	10	30	0	70	10	20	10	100	Plant response rating, Velvetleaf (velvetleaf; Postemergence, 125 g ai/ha): 0; Velvetleaf plant response rating (velvetleaf; [3]): 40; Velvetleaf plant response rating (velvetleaf; [4]): 0; Plant response rating, Velvetleaf (velvetleaf; Preemergence, 500 g ai/ha): 60; Plant response rating, Wheat (wheat; Postemergence, 125 g ai/ha): 0; Wheat plant response rating (wheat; [3]): 10; Wheat plant response rating (wheat; [4]): 10; Plant response rating, Wheat (wheat; Preemergence, 500 g ai/ha): 60; Plant response rating, Corn (corn; Postemergence, 125 g ai/ha): 0; Corn plant response rating (corn; [3]): 0; Corn plant response rating (corn; [4]): 0; Plant response rating, Corn (corn; Preemergence, 500 g ai/ha): 40; Plant response rating, Rice (rice; [5]): 20; Plant response rating, Rice (rice; [6]): 20; Plant response rating, Sedge, Umbrella (umbrella sedge; [5]): 0; Plant response rating, Sedge, Umbrella (umbrella sedge; [6]): 0; Plant response rating, Ducksalad (duck salad; [5]): 0; Plant response rating, Ducksalad (duck salad; [6]): 0; Plant response rating, Barnyardgrass (barnyardgrass [2]; [5]): 0; Plant response rating, Barnyardgrass (barnyardgrass [2]; [6]): 0
Cn1nc(C(F)(F)C(F)(F)F)c(CS(=O)(=O)c2cccc[n+]2[O-])c1OCC(F)(F)F [Compound 84]	70	80	90	100	70	80	60	90	70	80	80	100	20	70	70	90	40	70	60	100	Plant response rating, Velvetleaf (velvetleaf; Postemergence, 125 g ai/ha): 20; Velvetleaf plant response rating (velvetleaf; [3]): 70; Velvetleaf plant response rating (velvetleaf; [4]): 70; Plant response rating, Velvetleaf (velvetleaf; Preemergence, 500 g ai/ha): 100; Plant response rating, Wheat (wheat; Postemergence, 125 g ai/ha): 30; Wheat plant response rating (wheat; [3]): 60; Wheat plant response rating (wheat; [4]): 40; Plant response rating, Wheat (wheat; Preemergence, 500 g ai/ha): 100; Plant response rating, Corn (corn; Postemergence, 125 g ai/ha): 0; Corn plant response rating (corn; [3]): 40; Corn plant response rating (corn; [4]): 0; Plant response rating, Corn (corn; Preemergence, 500 g ai/ha): 30; Plant response rating, Rice (rice; [5]): 30; Plant response rating, Rice (rice; [6]): 65; Plant response rating, Sedge, Umbrella (umbrella sedge; [5]): 75; Plant response rating, Sedge, Umbrella (umbrella sedge; [6]): 100; Plant response rating, Ducksalad (duck salad; [5]): 75; Plant response rating, Ducksalad (duck salad; [6]): 85; Plant response rating, Barnyardgrass (barnyardgrass [2]; [5]): 15; Plant response rating, Barnyardgrass (barnyardgrass [2]; [6]): 60
Cc1cc[n+]([O-])c([S+]([O-])Cc2c(C(F)(F)F)nn(C)c2OCC(F)F)c1 (stereo not shown) [Compound 86]	70	90	70	100	50	90	70	100	80	90	90	100	60	90	50	90	60	90	90	100	Plant response rating, Velvetleaf (velvetleaf; Postemergence, 125 g ai/ha): 50; Velvetleaf plant response rating (velvetleaf; [3]): 70; Velvetleaf plant response rating (velvetleaf; [4]): 10; Velvetleaf plant response rating (velvetleaf; [7]): 80; Plant response rating, Wheat (wheat; Postemergence, 125 g ai/ha): 50; Wheat plant response rating (wheat; [3]): 70; Wheat plant response rating (wheat; [4]): 70; Wheat plant response rating (wheat; [7]): 90; Plant response rating, Corn (corn; Postemergence, 125 g ai/ha): 0; Corn plant response rating (corn; [3]): 80; Corn plant response rating (corn; [4]): 20; Plant response rating, Corn (corn; Preemergence, 500 g ai/ha): 50; Plant response rating, Rice (rice; [5]): 0; Plant response rating, Rice (rice; [6]): 0; Plant response rating, Sedge, Umbrella (umbrella sedge; [5]): 45; Plant response rating, Sedge, Umbrella (umbrella sedge; [6]): 95; Plant response rating, Ducksalad (duck salad; [5]): 65; Plant response rating, Ducksalad (duck salad; [6]): 100; Plant response rating, Barnyardgrass (barnyardgrass [2]; [5]): 0; Plant response rating, Barnyardgrass (barnyardgrass [2]; [6]): 0
Cc1cc[n+]([O-])c([S+]([O-])Cc2c(C(F)(F)F)nn(C)c2OC(C)C(F)(F)F)c1 (stereo not shown) [Compound 88]	30	80	60	100	50	80	20	90	50	90	90	100	60	90	70	90	30	80	90	100	Plant response rating, Velvetleaf (velvetleaf; Postemergence, 125 g ai/ha): 0; Velvetleaf plant response rating (velvetleaf; [3]): 50; Velvetleaf plant response rating (velvetleaf; [4]): 0; Velvetleaf plant response rating (velvetleaf; [7]): 90; Plant response rating, Wheat (wheat; Postemergence, 125 g ai/ha): 30; Wheat plant response rating (wheat; [3]): 70; Wheat plant response rating (wheat; [4]): 20; Wheat plant response rating (wheat; [7]): 80; Plant response rating, Corn (corn; Postemergence, 125 g ai/ha): 20; Corn plant response rating (corn; [3]): 60; Corn plant response rating (corn; [4]): 0; Plant response rating, Corn (corn; Preemergence, 500 g ai/ha): 50; Plant response rating, Rice (rice; [5]): 0; Plant response rating, Rice (rice; [6]): 45; Plant response rating, Sedge, Umbrella (umbrella sedge; [5]): 0; Plant response rating, Sedge, Umbrella (umbrella sedge; [6]): 85; Plant response rating, Ducksalad (duck salad; [5]): 0; Plant response rating, Ducksalad (duck salad; [6]): 70; Plant response rating, Barnyardgrass (barnyardgrass [2]; [5]): 0; Plant response rating, Barnyardgrass (barnyardgrass [2]; [6]): 30
